Data set [1] deals with CCD 841 CoN cells. Details: method as in PMID 31883991. To be noted: colon mucosa CCD 841 CoN cells, MTT test; cited from earlier work. On the technique in general: Tetrazolium assays rely on reduction of a dye to a coloured formazan, in cell work by metabolically active cells.
On the set-up of data set [2]: method as in PMID 31883991. To be noted: thermo-oxidative treatment; cited from earlier work.
In data set [3] the test system is intracellular ROS in CCD 841 CoN cells. Description: Intracellular ROS measurement (DCFH-DA, flow cytometry). Format: cell-based, human. Particulars: up to 40 μg/mL, 24 h. The procedure:
CCD 841 CoN cells were grown in 6-well plates at an initial cell density of 2 × 10^4 cells/cm^2 for 24 h under standard culture conditions. The cell cultures were treated for 24 h with the analyzed compounds at a 40 μg/mL concentration. After treatment, the cells were harvested by trypsinization, washed with Hank's Balanced Salt Solution, and incubated with 10 μM 2′,7′-Dichlorodihydrofluorescein diacetate (DCFH-DA) (Life Technologies, Carlsbad, CA, USA) at 37 °C for 30 min. Intracellular DCF fluorescence (λex/em = 488/530 nm) was examined by flow cytometry (Amnis™ FlowSight™ flow cytometer).
On the technique in general: In flow cytometry, cells or beads pass a laser one at a time.

For data set [4], the system named is caspase 3/7 activity in CCD 841 CoN cells. Description: Caspase 3/7 activity assay (APO-One Homogeneous). Particulars: 40 μg/mL, 24 h. In kind it is cell-based, human. The procedure: CCD 841 CoN cells were grown in black 96-well plates at an initial cell density of 2 × 10^4 cells/cm^2 for 24 h under standard culture conditions. The cell cultures were treated for 24 h with ST, ST-OA, and ST-LA at a 40 μg/mL dose. After treatment, caspase-3/7 activity was determined using the APO-One Homogeneous Caspase-3/7 Assay (Promega Corporation, Wisconsin, USA), which is based on the proteolytic cleavage of C-terminal side of aspartate residue in the DEVD peptide substrate by caspase 3/7 into fluorescent rhodamine 110 (R110). Analysis of caspase 3/7 activity was carried out following the manufacturer's instructions. Briefly, the cells after the treatment were incubated at room temperature with Apo-ONE® Caspase-3/7 Reagent—bifunctional cell lysis/caspase activity buffer combined with the pro-fluorescent caspase-3/7 substrate Z-DEVD-R110. After 4-h incubation, fluorescence was measured at an excitation wavelength of 485 nm and an emission wavelength of 530 nm using a Tecan M200 Infinite microplate reader. Data obtained were normalized to cellular protein content, quantified by BCA assay (Pierce® BCA Protein Assay Kit, Thermo Scientific Inc., USA) according to the manufacturer's protocol.

Data set [5] has as its system CCD 841 CoN cells. Description: DNA damage detection, comet assay (SCGE). Particulars: 40 μg/mL, 48 h. Format: cell-based, human. As to the method:
The cells were grown at 6-well plates at the established density and standard culture conditions and exposed to the non-heated and heated ST, ST-OA, and ST-LA for 48 h. The non-treated cells and cells treated with H2O2 (100 μM, 30 min) to induce oxidative DNA damage constituted the negative and positive controls, respectively. After treatment, cells were analyzed for DNA damage using a single cell gel electrophoresis (SCGE) called comet assay, described in detail previously. Briefly, harvested cells suspended in low melting point agarose were put onto microscope slides pre-coated with normal melting point agarose and subjected sequentially to lysis, alkaline electrophoresis (pH > 13), and neutralization ([…]). The cells were stained with SYBRGold (Molecular Probes), viewed under a fluorescence microscope (Axiovert 200, Zeiss, Carl Zeiss, Gottingen, Germany), and analyzed using CometScore™ software (TriTek Corp., Sumerduck, VA, USA). At least 100 cells were analyzed on a microscope slide; 300 cells were considered for DNA damage detection in one sample. Data were expressed as the mean percentage of DNA content in the comet tail. […] Based on the comets' categorization, the total comet score (TCS) was calculated according to the formula: TCS = 0(n) + 1(n) + 2(n) + 3(n) + 4(n), where “n” is the number of cells in each comet class (0–4)[45].

For data set [6], the system named is CCD 841 CoN cells. Description: MultiTox-Fluor Multiplex Cytotoxicity Assay (live and dead cell fluorescence). In kind it is cell-based. The procedure:
The normal human diploid CCD 841 CoN cell line (ATCC® CRL-1790™) isolated from colon mucosa was obtained from American Type Culture Collection (ATCC, Manassas, VA, USA). Cells were cultured in Dulbecco’s Modified Eagle’s Medium (DMEM, Sigma-Aldrich) supplemented with fetal bovine serum (FBS; Gibco BRL, Grand Island, NY, USA) to a final concentration of 10% and maintained at 37 °C in a humidified atmosphere with 5% CO2.
In the cytotoxicity experiments, CCD 841 CoN cells were seeded in 96-well plates at an initial density of 2.0 × 10^4 cells/cm^2 and incubated for 24 h. […] Control culture contained the vehicle at the amount corresponding to the sample analyzed.
The Multitox-Fluor Multiplex Cytotoxicity Assay (Promega GmbH, Mannheim, Germany) was applied to determine the relative number of live and dead cells in the CCD 841 CoN cell cultures treated with the analyzed compounds. The assay determined live- and dead-cell protease activities using two fluorogenic peptide substrates, cell-permeant (glycyl-phenylalanyl-amino fluorocoumarin; GF-AFC) and cell-impermeant (bis-alanyl-alanyl-phenylalanyl-rhodamine 110; bis-AAF-R110). After treatment, the cells were incubated with GF-AFC and bis-AAF-R110 substrates for 60 min at 37 °C. The live- and dead-cell proteases produced AFC and R110 products, measured using a Tecan M200 Infinite microplate reader (Tecan Group Ltd., Männedorf, Switzerland) at different excitation (400 nm and 485 nm) and emission (505 nm and 520 nm) spectra. The assay was conducted according to the manufacturer’s instructions.

Another data set relates to S. typhimurium TA102. The data set is described as follows: Bacterial reverse mutation assay (Ames test), strain TA102. To be noted: 40 μg/mL, regardless of metabolic activation (+/− S9). The procedure: Potential mutagenicity or pro-mutagenicity of non-heated and heated ST, ST-LA, and ST-OA was determined using the bacterial reverse mutation assay (Ames test) with Salmonella enterica subsp. enterica ser. typhimurium tester strains TA98, TA100, and TA102, which were obtained from the Polish Collection of Microorganisms of the Institute of Immunology and Experimental Therapy of the Polish Academy of Sciences in Wroclaw.
Mutagenicity experiments were performed in the liquid pre-incubation assay, without and with metabolic activation by supplying Aroclor 1254-induced rat liver microsomal fraction (S9, Sigma-Aldrich) with NADP and cofactors for NADPH-supported oxidation, according to the procedure described by Mortelmans and Zeiger[39]. Briefly, reaction mixtures, consisting of 12-h bacterial culture, non-heated and heated compound (ST, ST-LA, ST-OA) at a concentration of 40 μg, 0.2 M phosphate buffer (pH 7.4), and alternatively S9 activating mixture, were pre-incubated at 37 °C for 20 min. […] The mutagen, 2-aminoanthracene (5 μg) (Sigma-Aldrich), was a positive control in pro-mutagenicity experiments. After pre-incubation, the reaction mixtures were added to the top agar supplemented with traces of histidine and biotin and poured onto the plates covered with minimum glucose agar. The cultures were incubated for 48 h at 37 °C, and the number of revertants (His+) colonies was counted manually.
Compounds with MI ≥ 2 can be recognized as potentially mutagenic.

Consider `CC[C@H](/C=C/[C@@H](C)[C@H]1CC[C@H]2[C@@H]3CC=C4C[C@@H](O)CC[C@]4(C)[C@H]3CC[C@]12C)C(C)C` [ST, Stigmasterol], for which, in the data set with CCD 841 CoN cells [1], the “half-maximal effective concentration (EC50), 50% decrease in cell viability” value was 2.95 µg/mL. The “degradation of ST molecule due to the heating process” value in data set [2] is reported as “approximately 80%”. In addition, the “intracellular ROS production / oxidative reactivity” value in data set [3] is “did not induce enhanced intracellular ROS production”. For the same compound, in data set [4], the “caspase 3/7 activity” value is “Boosted caspase 3/7 activity”. In addition, in the data set with CCD 841 CoN cells [5], the “comets category 2 (medium DNA damage, 25 to 45% DNA in tail), share of cell population” value was found to be 3.5% and the “total comet score (TCS), comet class distribution vs control” value was “no significant differences”. For the same compound, in the data set on CCD 841 CoN cells [6] (1 μg/mL, first cytotoxic effects), the “decrease in the viable cell number” value turned out to be 10%. Besides, in the data set with CCD 841 CoN cells [6] (40 μg/mL, 48-h treatment), the “reduction in number of viable cells / relative cell viability” value is “approximately 80%”. In addition, in the data set on CCD 841 CoN cells [6] (48-h treatment), the “concentration at which first cytotoxic effects were observed” value came out at 1000 ng/mL. In addition, in the data set with S. typhimurium TA102, the “effect on TA102 revertants” value is “did not affect the number of TA102 revertants”.

Source of the values: paper PMC10151334, “Anti-proliferative potential and oxidative reactivity of thermo-oxidative degradation products of stigmasterol and stigmasteryl esters for human intestinal cells” (Scientific Reports, 2023).
